The results in this text go back to patent US6924309B2 (Children, Youth and Women's Health Service Incorporated, priority 1999, dated 2005).

Series [1] is described as follows: Petri-dish thin film autoxidation of arachidonic acid with thia fatty acids and sulfides (HPLC). As to conditions: for Arachidonic acid (%) recovered following autoxidation: arachidonic acid alone. The method, then:
A stock solution in dichioromethane (2 ml) containing arachidonic acid 1 (18 mg) and 3-[(3Z,6Z)-nona-3,6dienylthio]propionic acid 106 (18 mg) was prepared with lauric acid (18 mg) as an internal standard. Samples of the stock solution (100 μl) were added to glass Petri-dishes followed by ethanol (400 μl). After evaporation of the solvent, a well-distributed thin film was formed on each Petri-dish. The Petri-dishes were placed in a desiccator, which was then evacuated, filled with oxygen and stored in the darkness. Dishes were removed from the desiccator after 1, 2, 3, 5 and 7 days. The mixture on each dish was redissolved in diethyl ether and transferred to a 2 ml vial. After evaporation of the solvent, the residue was dissolved in the HPLC mobile phase (100 μl) and 10% of the solution was analysed by HPLC using a reverse phase column (octadecylsilane) (4.6 mm×250 mm, 3 μm) and a refractive index detector.
Autoxidation of arachidonic acid was conducted in the presence of compound 19 and lauric acid. Stock solutions of arachidonic acid, compound 19 and lauric acid in dichloromethane with equal concentrations were added to a 25 ml round-bottomed flask, and the solvent was evaporated to leave a thin film on the internal surface of the flask. The flask was then filled with oxygen and kept in the dark. The percentages of arachidonic acid and compound 19 remaining after 7 days were measured by HPLC. The same assay was carried out simultaneously with several flasks but the results were not reproducible. The variation was attributed to differences in oxygen concentration and the surface area of the thin films formed in the flasks. Therefore, in order to establish a reproducible assay for the analysis of the autoxidation of arachidonic acid, Petri-dishes with uniform size (80 mm in diameter) were used instead of flasks for thin film formation and the oxidation was carried out by placing the Petri-dishes in a dessicator filled with oxygen. To assess this method, thin firms of arachidonic acid with lauric acid as a standard were prepared on six Petri-dishes using identical treatment, and then subjected to oxidation in the same dessicator filled with oxygen. After 24 h, the percentage of arachidonic acid recovered following autoxidation in each Petri-dish was determined by HPLC. […] The advantage of using a Petri-dish over a flask is that the thin films on each Petri-dish are spread over the same area, and each Petri-dish is exposed to oxygen to the same extent.
Using the Petri-dish assay method, the effects of the thia PUFAs and sulfides 106 and 108-111, along with compounds 18, 19 and 3-[(Z,Z,Z)-(octadeca-9,12,15-trienylthio)] propionic acid 112 which were available in the laboratory, on the autoxidation of arachidonic acid, were examined. In addition, the stability of these compounds in the presence of arachidonic acid was also investigated. Arachidonic acid and lauric acid as a standard were mixed with each sulfur compound at different ratios and the mixtures were subjected to thin film autoxidation. The mixtures were analysed by HPLC after 1,2,3,5 and 7 days.

Series [2] is described as follows: Thin film autoxidation of arachidonic acid with compounds 16-19 (HPLC). The text has this: Subsequently, the autoxidation of compounds 16-19 and their effects on the autoxidation of arachidonic acid were investigated. In these experiments, a thin film assay method was employed. For each reaction, arachidonic acid was mixed with one of the synthetic compounds 16, 17, 18 or 19 at 1:1 ratio with or without the radical initiator, azobisisobutyronitrile (AIBN). A reverse phase HPLC method was used to simultaneously measure the relative amounts of arachidonic acid and the synthetic compounds 16, 17, 18 or 19 recovered following 60 or 70 hours or 7 days of thin film autoxidation.

Setting [3] is: 1:1 ratio with arachidonic acid.
[4] abbreviates: compound at one-tenth that of arachidonic acid.
Setting [5] is: ratio arachidonic acid:compound 1:1, 1 day.
Where [6] appears, read: ratio arachidonic acid:compound 1:1, 2 days.
The mark [7] stands for this setting: ratio arachidonic acid:compound 1:1, 3 days.
[8] abbreviates: ratio arachidonic acid:compound 1:1, 5 days.
The mark [9] stands for this setting: ratio arachidonic acid:compound 1:1, 7 days.
[10] abbreviates: ratio arachidonic acid:compound 2:1, 1 day.
[11] abbreviates: ratio arachidonic acid:compound 2:1, 2 days.
Setting [12] is: ratio arachidonic acid:compound 2:1, 3 days.
Where [13] appears, read: ratio arachidonic acid:compound 2:1, 5 days.
Setting [14] is: ratio arachidonic acid:compound 2:1, 7 days.
The mark [15] stands for this setting: ratio arachidonic acid:compound 10:1, 1 day.
[16] abbreviates: ratio arachidonic acid:compound 10:1, 2 days.
Setting [17] is: ratio arachidonic acid:compound 10:1, 3 days.
The mark [18] stands for this setting: ratio arachidonic acid:compound 10:1, 5 days.
[19] abbreviates: ratio arachidonic acid:compound 10:1, 7 days.

The structures appear in SMILES notation. Read-outs that look alike come from different tables or passages of the source.

Take `CCCCC/C=C\C/C=C\C/C=C\C/C=C\CCCC(=O)O` [Arachidonic acid, arachidonic acid, reference compound]: the “Arachidonic acid (%) recovered following autoxidation” value in series [1] (1 day) was 91%; in series [1] (2 days), 20%; in series [1] (3 days) it was 16%; in series [1] (5 days) it was 12%.
On to `CCCCC/C=C\C/C=C\C/C=C\CCCCCOCC(=O)O` [Compound 16, (Z,Z,Z)-(octadeca-6,9,12-trienyloxy) acetic acid], for which the “Percentage of arachidonic acid recovered in the presence of the compound” value in series [2] (ratio 1:1, 10% AIBN 60 h) worked out at 17%; in series [2] (ratio 1:1, no additive 70 h), 97%; in series [2] (ratio 1:1, no additive 7 day), 23%. Moreover, the “Percentage of compound recovered (with arachidonic acid)” value is reported as 11% in series [2] (ratio 1:1, 10% AIBN 60 h); 88% in series [2] (ratio 1:1, no additive 70 h); 27% in series [2] (ratio 1:1, no additive 7 day).
Regarding `CC/C=C\C/C=C\CCSCCC(=O)O` [Compound 106], the “Antioxidant effect on autoxidation of arachidonic acid (in words)” value (“Antioxidant effect on autoxidation” below) is “effective antioxidants” in series [1], “almost complete prevention of autoxidation” in series [1] (setting [3]) and “very slow over the first 3 days” in series [1] (setting [4]). Also, the “Arachidonic acid (%) recovered following autoxidation in the presence of the compound” value is 99% in series [1] (setting [5]); 98% in series [1] (setting [6]); 99% in series [1] (setting [7]); 100% in series [1] (setting [8]); 101% in series [1] (setting [9]); 98% in series [1] (setting [10]). The “Arachidonic acid (%) recovered following autoxidation in the presence of the compound” value in series [1] (setting [11]) was 99%; in series [1] (setting [12]), 98%; in series [1] (setting [13]) it was 99%; in series [1] (setting [14]) it was 99%; in series [1] (setting [15]) it was 101%; in series [1] (setting [16]) it was 101%. Further, the entries for the “Arachidonic acid (%) recovered following autoxidation in the presence of the compound” value in series [1] (setting [17]), in series [1] (setting [18]) and in series [1] (setting [19]) were 99%, 79% and 16%, respectively. The “Compound (%) recovered following autoxidation with arachidonic acid” value in series [1] (setting [5]) was found to be 98%; in series [1] (setting [6]) it was 96%; in series [1] (setting [7]), 98%; in series [1] (setting [8]), 97%; in series [1] (setting [9]), 98%; in series [1] (setting [10]) it was 97%. Besides, the “Compound (%) recovered following autoxidation with arachidonic acid” value in series [1] (setting [11]) is reported as 98%; in series [1] (setting [12]), 97%; in series [1] (setting [13]), 97%; in series [1] (setting [14]) it was 100%; in series [1] (setting [15]) it was 94%; in series [1] (setting [16]), 84%. Moreover, the “Compound (%) recovered following autoxidation with arachidonic acid” value in series [1] (setting [17]) worked out at 59%.
Take `CCCCC/C=C\C/C=C\C/C=C\C/C=C\CCCCSCCC` [Compound 110, propyl(all-Z)-eicosa-5,8,11,14-tetraenylpropyl sulfide]: the entries for the “Antioxidant effect on autoxidation” value in series [1] (setting [3]) and in series [1] (setting [4]) were “effectively inhibit” and “still effective antioxidiants”, respectively. The “Arachidonic acid (%) recovered following autoxidation in the presence of the compound” value in series [1] (setting [7]) is on record as 100%; in series [1] (setting [9]), 100%; in series [1] (setting [15]), 97%; in series [1] (setting [16]) it was 89%; in series [1] (setting [17]) it was 67%; in series [1] (setting [18]) it was 24%. Besides, the “Arachidonic acid (%) recovered following autoxidation in the presence of the compound” value in series [1] (setting [19]) came out at 10%. Further, the “Compound (%) recovered following autoxidation with arachidonic acid” value came to 99% in series [1] (setting [7]), 100% in series [1] (setting [9]), 85% in series [1] (setting [15]) and 22% in series [1] (setting [16]).
For `CCCCCCCCCCCCCCSCCC` [Compound 111, propyltetradecyl sulfide], the “Antioxidant effect on autoxidation” value is recorded as “effectively inhibit” in series [1] (setting [3]) and “still effective antioxidiants” in series [1] (setting [4]). The “Arachidonic acid (%) recovered following autoxidation in the presence of the compound” value in series [1] (setting [5]) is on record as 100%; in series [1] (setting [6]), 98%; in series [1] (setting [7]), 98%; in series [1] (setting [8]), 98%; in series [1] (setting [9]), 97%; in series [1] (setting [15]), 99%. Further, the “Arachidonic acid (%) recovered following autoxidation in the presence of the compound” value in series [1] (setting [16]) was 99%; in series [1] (setting [17]), 97%; in series [1] (setting [18]) it was 68%; in series [1] (setting [19]), 17%. For the same compound, the “Compound (%) recovered following autoxidation with arachidonic acid” value came out at 101% in series [1] (setting [5]); 91% in series [1] (setting [6]); 92% in series [1] (setting [7]); 92% in series [1] (setting [8]); 90% in series [1] (setting [9]); 81% in series [1] (setting [15]). The “Compound (%) recovered following autoxidation with arachidonic acid” value in series [1] (setting [16]) worked out at 63%; in series [1] (setting [17]) it was 38%.
Regarding `CC/C=C\C/C=C\C/C=C\CCCCCCCCSCCC(=O)O` [Compound 112, 3-[(Z,Z,Z)-(octadeca-9,12,15-trienylthio)]-propionic acid], the “Antioxidant effect on autoxidation” value in series [1] is given as “effective antioxidants”; in series [1] (setting [3]) it was “effective as an antioxidant”; in series [1] (setting [4]) it was “less effective than either compound 19 or 106”. Also, the “Arachidonic acid (%) recovered following autoxidation in the presence of the compound” value is reported as 100% in series [1] (setting [5]); 99% in series [1] (setting [6]); 98% in series [1] (setting [7]); 99% in series [1] (setting [8]); 93% in series [1] (setting [9]); 82% in series [1] (setting [15]). Further, the “Arachidonic acid (%) recovered following autoxidation in the presence of the compound” value turned out to be 33% in series [1] (setting [16]), 17% in series [1] (setting [17]) and 4% in series [1] (setting [18]). Besides, the “Compound (%) recovered following autoxidation with arachidonic acid” value in series [1] (setting [5]) was 100%; in series [1] (setting [6]) it was 98%; in series [1] (setting [7]) it was 97%; in series [1] (setting [8]), 97%; in series [1] (setting [9]), 86%; in series [1] (setting [15]), 25%.
